Measurements: ChEMBL document CHEMBL1201862, “PubChem BioAssay data set” (2004)
Calls of active or inactive are those of the source.

Columns and labels:
[1] = target: T1, Low molecular weight phosphotyrosine protein phosphatase (Homo sapiens, UniProt P24666); type: functional; conditions: read-out: IC50_Mean;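 further: Dose-response confirmation assay measuring inhibition of LMPTP enzyme activity by fluorescence intensity read-out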
T1 sequence (P24666 whole entry): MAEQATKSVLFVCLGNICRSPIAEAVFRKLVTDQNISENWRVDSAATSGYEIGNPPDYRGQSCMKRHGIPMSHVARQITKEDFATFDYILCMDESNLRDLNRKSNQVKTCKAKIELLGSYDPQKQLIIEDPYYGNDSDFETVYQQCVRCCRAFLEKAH

[2] = target: T2, Fatty acid synthase (Homo sapiens, UniProt P49327); assay: inhibition of human FAS-TE enzyme activity – biochemical, kinetic fluorescence intensity, dose response (AID 624326); type: functional;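 further: rate of fluorescence rise from hydrolysis of a fluorogenic O-methyl fluorescein ester substrate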
[3] = Fluorescence-based cell-based high throughput dose response assay for inhibitors of the interaction of nucleotide-binding oligomerization domain containing 2 (NOD2) and the receptor-interacting serine-threonine kinase 2 (RIPK2).; type: functional; conditions: Homo sapiens
[4] = target: T2, Fatty acid synthase; assay: inhibition of human FAS-TE enzyme activity – biochemical, endpoint fluorescence intensity, uHTS hits, dose response (AID 624327); type: functional;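 further: fluorescence from hydrolysis of an O-methyl fluorescein acyl ester substrate by the enzyme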
[5] = target: Beta Lactamase (Pseudomonas aeruginosa, UniProt Q932Y6); assay: BLA reporter interference, concentration series – BLA reporter cells, FRET fluorescence, artefact control for NOD2-RIPK2 interaction inhibitor project, dose response (AID 651552); type: functional, cell-based
[6] = target: Heat shock protein HSP 90-alpha (Homo sapiens, UniProt P07900); type: functional, organism-based
[7] = target: T3, Type-1 angiotensin II receptor (Homo sapiens, UniProt P30556); assay: antagonism of angiotensin II type 1 receptor – cell-based, uHTS hits, selectivity assay for APJ receptor antagonist project, dose response (AID 463214); type: functional;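 further: antagonist potency against angiotensin II stimulated AT1 response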
T3 sequence (P30556 whole entry): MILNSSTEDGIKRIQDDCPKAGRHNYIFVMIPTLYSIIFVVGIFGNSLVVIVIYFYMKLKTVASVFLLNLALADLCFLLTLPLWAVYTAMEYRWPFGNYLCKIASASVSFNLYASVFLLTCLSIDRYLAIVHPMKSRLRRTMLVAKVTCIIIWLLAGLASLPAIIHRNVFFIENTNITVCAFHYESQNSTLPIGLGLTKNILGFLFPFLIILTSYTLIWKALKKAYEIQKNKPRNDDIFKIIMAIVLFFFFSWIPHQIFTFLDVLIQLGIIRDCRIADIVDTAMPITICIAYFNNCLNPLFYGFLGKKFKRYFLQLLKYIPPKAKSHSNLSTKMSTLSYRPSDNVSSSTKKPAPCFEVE

[8] = target: Beta-galactosidase (Escherichia coli, UniProt Q8VNN2); assay: PubChem AID 485352; type: functional
[9] = viability loss in THP-1 monocytes – THP-1 cells, cytotoxicity control for Vif-APOBEC3G degradation inhibitor project, dose response (AID 1117359); type: functional; conditions: THP-1
[10] = target: Adenosylmethionine-8-amino-7-oxononanoate aminotransferase (Mycobacterium tuberculosis, UniProt P9WQ81); assay: Mycobacterium tuberculosis BioA enzyme inhibitor Measured in Biochemical System Using Plate Reader - 2163-02_Inhibitor_Dose_CherryPick_Activity.; type: functional, Mycobacterium tuberculosis UT205
[11] = target: Melanocortin receptor 4 (Homo sapiens, UniProt P32245); type: functional, cell-based;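 further: Cell-based assay with luminescence read-out, confirmatory dose-response testing for agonist activity of biased ligands at MC4R; human U2OS cells with tagged receptor and beta-arrestin; potency of agonists that increase receptor coupling to beta-arrestin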
[12] = target: Cytochrome P450 2C19 (Homo sapiens, UniProt P33261); assay: Cytochrome panel assay with activity outcomes. Panel member name: p450-cyp2c19 Compounds with AC50 equal or less than 10 uM are considered active; type: functional; conditions: read-out: AC50
[13] = target: T4, Cytochrome P450 1A2 (Homo sapiens, UniProt P05177);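 further: PubChem cytochrome P450 panel assay, CYP1A2 panel member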
T4 sequence (P05177 whole entry): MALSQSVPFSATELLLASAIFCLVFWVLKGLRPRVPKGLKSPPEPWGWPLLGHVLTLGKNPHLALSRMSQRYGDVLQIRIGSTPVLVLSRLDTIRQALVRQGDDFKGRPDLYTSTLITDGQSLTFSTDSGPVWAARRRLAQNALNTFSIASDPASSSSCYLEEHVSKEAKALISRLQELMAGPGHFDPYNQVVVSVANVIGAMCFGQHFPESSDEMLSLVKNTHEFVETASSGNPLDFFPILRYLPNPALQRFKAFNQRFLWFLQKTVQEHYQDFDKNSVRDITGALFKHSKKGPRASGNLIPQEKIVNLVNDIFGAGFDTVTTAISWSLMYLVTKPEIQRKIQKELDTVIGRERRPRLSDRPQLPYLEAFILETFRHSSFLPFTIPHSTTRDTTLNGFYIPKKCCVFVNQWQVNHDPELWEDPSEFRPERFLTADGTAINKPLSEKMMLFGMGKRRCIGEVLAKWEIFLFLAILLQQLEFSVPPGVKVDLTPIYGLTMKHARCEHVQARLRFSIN

[14] = system: H9c2; assay: cells; type: functional, cell-based; conditions: Rattus norvegicus, H9c2, Myocardium;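 further: confirmatory concentration-response retest of ultra-high-throughput screening hits for modulation of myocardial damage; cell death induced by hydrogen peroxide oxidative stress; compound pretreatment for 60 min then peroxide exposure for 2 h; potency is for protecting the cells against peroxide damage rather than for killing them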
[15] = target: DNA repair and recombination protein RAD54-like (Homo sapiens, UniProt Q92698); assay: RAD54 Holliday junction migration blockers – biochemical, fluorescence, cherry-picked samples, dose series, confirmation (AID 651657); type: functional
[16] = target: Genome polyprotein (dengue virus type 2, UniProt P29990); assay: flavivirus cap methylation enzyme inhibition – biochemical, confirmation dose response, primary screen (AID 588689); type: functional
[17] = Vero E6 cell cytotoxicity, dose response, cytotoxicity control for non-replicating M. tuberculosis project, secondary assay (AID 492998); type: functional, VeroE6; conditions: Vero C1008
[18] = system: BJ; assay: cells; type: functional, cell-based; conditions: Homo sapiens
[19] = target: T5, Protein RecA (Mycobacterium tuberculosis, UniProt P9WHJ3); assay: Fluorescence Cell-Free Homogeneous Dose Retest to Identify Inhibitors of RecA-Intein Splicing Activity. [Related pubchem assays (depositor defined):AID2097, AID2223, AID489010, AID492950]; type: functional
T5 sequence (P9WHJ3 whole entry): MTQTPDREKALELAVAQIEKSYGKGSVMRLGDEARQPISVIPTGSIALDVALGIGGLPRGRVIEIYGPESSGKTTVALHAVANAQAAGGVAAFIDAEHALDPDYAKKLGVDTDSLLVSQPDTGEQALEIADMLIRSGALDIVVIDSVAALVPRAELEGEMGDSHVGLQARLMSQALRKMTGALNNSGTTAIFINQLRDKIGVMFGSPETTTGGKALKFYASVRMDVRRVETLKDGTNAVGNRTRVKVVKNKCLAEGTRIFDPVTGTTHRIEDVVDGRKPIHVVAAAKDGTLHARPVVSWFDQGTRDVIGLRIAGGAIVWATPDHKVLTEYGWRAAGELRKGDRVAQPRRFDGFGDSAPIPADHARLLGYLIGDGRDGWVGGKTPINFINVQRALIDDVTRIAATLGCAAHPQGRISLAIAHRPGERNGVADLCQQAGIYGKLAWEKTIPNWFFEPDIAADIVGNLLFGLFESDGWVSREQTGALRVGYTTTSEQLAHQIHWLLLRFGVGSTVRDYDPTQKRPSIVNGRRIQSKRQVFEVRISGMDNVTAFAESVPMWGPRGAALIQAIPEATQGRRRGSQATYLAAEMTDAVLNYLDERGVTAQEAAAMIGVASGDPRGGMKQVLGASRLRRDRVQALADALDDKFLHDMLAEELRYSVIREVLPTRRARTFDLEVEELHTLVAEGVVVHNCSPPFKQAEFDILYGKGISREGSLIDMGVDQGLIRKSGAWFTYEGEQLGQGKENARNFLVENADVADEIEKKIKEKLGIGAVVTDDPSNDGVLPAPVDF

[20] = viability of PTEN-deleted HCT116 cells – cell-based, HCT116 PTEN knockout, dose response (AID 1047); type: functional;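 further: HCT116 colon tumor cells with PTEN knocked out; cells exposed to compound for 60 hours before readout; potency for loss of cell viability measured by luminescence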
[21] = viability of HCT116 lacking mutant beta-catenin – cell-based, human colon tumor, dose response (AID 1045); type: functional;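 further: HCT116 colon tumor cells with beta catenin knocked out; cells exposed to compound for 60 hours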
[22] = target: T6, Replicative DNA helicase DnaB (Mycobacterium tuberculosis, UniProt P9WMR3); assay: DnaB intein splicing inhibitors, dose response, biochemical, cell-free fluorescence (AID 449749); type: functional
T6 sequence (P9WMR3 whole entry): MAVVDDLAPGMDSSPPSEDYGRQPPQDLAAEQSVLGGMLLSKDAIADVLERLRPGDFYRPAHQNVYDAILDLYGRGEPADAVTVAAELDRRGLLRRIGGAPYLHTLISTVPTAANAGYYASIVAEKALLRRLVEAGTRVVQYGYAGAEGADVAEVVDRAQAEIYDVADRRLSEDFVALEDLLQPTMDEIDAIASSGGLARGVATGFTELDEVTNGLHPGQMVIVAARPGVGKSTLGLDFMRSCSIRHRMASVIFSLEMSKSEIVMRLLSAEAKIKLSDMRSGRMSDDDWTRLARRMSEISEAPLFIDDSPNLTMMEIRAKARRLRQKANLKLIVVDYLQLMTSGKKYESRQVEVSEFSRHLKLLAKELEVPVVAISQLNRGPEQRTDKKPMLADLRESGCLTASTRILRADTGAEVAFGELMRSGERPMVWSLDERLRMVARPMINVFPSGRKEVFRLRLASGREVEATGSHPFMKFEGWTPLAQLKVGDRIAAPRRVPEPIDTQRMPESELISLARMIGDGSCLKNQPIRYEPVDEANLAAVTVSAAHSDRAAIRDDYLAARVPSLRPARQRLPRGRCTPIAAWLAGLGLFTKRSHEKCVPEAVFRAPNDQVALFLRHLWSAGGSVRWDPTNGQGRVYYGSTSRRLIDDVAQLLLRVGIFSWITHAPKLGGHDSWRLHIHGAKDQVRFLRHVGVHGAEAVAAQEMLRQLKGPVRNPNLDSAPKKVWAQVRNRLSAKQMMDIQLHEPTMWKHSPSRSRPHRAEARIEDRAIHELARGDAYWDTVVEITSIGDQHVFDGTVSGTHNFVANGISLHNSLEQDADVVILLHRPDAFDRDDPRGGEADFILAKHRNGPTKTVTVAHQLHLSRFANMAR

[23] = THP-1 cell cytotoxicity, dose response, cytotoxicity control for non-replicating M. tuberculosis project (AID 489025); type: functional
[24] = system: BJ; assay: BJ-TERT-LT-ST fibroblast viability loss – cell-based, RAS-independent, luminescence, dose response (AID 1935); type: functional; conditions: Homo sapiens;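 further: BJ fibroblasts immortalized with TERT plus LT and ST oncogenes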
[25] = DRD fibroblast viability loss – cell-based, non-viral oncogenic, luminescence, dose response (AID 1934); type: functional; conditions: Homo sapiens
[26] = system: INS1; assay: INS-1E survival protection against cytokine death – cell-based, luminescence, retest, dose response (AID 449756); type: functional; conditions: Rattus norvegicus;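 further: cell death triggered by IL-1 beta plus TNF-alpha plus IFN-gamma mixture; protective hits raise ATP signal compared with cytokine alone wells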
[27] = HepG2 cell cytotoxicity, dose response, cytotoxicity control for non-replicating M. tuberculosis project (AID 489018); type: functional; conditions: Mycobacterium tuberculosis
[28] = target: Neurotensin receptor type 1 (Homo sapiens, UniProt P30989); type: functional;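 further: Image-based confirmatory dose-response assay measuring agonist activity at NTR1; NTR1-expressing U2OS osteosarcoma cells imaged for beta-arrestin GFP spot formation; agonist potency where compounds increase beta-arrestin recruitment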
[29] = system: Vero; assay: viability of Vero cells under compound – cytotoxicity control for flavivirus capping enzyme inhibitors (AID 588742); type: functional; conditions: Chlorocebus sabaeus
[30] = cells; type: functional

T2 sequence (P49327 whole entry, the tested form may be a part): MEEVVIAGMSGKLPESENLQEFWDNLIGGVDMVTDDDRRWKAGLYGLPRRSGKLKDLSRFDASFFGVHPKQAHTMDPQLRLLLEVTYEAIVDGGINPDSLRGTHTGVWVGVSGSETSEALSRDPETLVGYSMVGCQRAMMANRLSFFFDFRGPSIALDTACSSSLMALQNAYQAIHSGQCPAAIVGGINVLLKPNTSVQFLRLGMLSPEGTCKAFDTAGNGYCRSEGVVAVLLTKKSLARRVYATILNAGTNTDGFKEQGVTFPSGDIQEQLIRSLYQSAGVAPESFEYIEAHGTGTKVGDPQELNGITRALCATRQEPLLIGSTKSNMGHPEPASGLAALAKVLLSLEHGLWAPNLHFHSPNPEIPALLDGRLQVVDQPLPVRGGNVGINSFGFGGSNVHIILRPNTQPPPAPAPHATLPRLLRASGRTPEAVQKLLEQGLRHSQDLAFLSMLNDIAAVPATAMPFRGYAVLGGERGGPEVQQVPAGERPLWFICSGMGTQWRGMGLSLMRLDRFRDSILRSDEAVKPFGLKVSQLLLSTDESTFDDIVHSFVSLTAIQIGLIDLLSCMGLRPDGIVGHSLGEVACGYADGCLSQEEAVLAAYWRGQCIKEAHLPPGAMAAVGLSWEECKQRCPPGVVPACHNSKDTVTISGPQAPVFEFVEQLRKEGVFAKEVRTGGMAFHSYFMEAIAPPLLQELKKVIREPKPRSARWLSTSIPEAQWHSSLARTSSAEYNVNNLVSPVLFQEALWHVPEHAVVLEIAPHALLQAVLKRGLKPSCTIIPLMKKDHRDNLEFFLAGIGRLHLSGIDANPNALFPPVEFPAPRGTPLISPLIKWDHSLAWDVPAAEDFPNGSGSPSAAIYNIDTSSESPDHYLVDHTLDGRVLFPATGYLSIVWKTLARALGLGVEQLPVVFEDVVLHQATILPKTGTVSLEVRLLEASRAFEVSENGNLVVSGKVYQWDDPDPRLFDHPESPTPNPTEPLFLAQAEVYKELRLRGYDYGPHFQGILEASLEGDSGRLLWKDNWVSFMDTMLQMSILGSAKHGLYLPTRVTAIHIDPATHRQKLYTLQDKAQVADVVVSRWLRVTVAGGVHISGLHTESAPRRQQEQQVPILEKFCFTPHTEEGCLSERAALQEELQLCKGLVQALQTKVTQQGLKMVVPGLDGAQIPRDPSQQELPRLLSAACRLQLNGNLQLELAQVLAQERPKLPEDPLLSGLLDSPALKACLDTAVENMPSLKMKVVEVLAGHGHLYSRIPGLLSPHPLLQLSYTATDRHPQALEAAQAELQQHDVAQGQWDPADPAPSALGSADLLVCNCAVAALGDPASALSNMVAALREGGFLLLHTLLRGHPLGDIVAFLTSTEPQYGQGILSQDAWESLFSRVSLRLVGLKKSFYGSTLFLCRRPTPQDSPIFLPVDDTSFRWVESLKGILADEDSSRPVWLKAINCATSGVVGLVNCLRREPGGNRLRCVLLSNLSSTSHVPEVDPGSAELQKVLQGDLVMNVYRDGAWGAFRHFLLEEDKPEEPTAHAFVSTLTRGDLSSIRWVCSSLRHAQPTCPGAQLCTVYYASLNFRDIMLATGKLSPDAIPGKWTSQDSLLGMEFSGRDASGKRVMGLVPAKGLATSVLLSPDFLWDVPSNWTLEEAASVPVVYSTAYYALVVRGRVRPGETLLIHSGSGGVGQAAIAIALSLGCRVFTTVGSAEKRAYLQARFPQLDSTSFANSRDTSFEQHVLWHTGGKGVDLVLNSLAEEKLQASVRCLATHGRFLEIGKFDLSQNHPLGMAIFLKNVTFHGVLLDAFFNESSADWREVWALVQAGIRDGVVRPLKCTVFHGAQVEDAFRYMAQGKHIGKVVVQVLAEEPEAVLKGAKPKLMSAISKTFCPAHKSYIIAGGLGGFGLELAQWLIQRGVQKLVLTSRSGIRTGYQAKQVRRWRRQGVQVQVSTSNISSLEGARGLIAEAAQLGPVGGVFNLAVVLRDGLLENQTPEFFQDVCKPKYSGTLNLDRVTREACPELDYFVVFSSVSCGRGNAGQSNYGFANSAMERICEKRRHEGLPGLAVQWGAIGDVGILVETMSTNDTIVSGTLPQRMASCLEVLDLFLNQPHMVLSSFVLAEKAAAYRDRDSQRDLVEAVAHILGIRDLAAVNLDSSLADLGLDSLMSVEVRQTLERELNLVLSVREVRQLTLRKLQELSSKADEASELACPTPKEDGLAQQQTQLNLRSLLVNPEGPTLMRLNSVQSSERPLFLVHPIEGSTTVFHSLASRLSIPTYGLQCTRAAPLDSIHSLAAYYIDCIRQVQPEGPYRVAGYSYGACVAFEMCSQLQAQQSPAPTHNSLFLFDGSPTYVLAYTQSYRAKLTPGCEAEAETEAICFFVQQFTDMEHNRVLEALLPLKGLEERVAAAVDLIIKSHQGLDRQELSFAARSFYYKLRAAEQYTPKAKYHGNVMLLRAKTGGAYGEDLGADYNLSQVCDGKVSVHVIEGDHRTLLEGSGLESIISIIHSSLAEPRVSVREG
Melanocortin receptor 4, sequence (P32245 whole entry): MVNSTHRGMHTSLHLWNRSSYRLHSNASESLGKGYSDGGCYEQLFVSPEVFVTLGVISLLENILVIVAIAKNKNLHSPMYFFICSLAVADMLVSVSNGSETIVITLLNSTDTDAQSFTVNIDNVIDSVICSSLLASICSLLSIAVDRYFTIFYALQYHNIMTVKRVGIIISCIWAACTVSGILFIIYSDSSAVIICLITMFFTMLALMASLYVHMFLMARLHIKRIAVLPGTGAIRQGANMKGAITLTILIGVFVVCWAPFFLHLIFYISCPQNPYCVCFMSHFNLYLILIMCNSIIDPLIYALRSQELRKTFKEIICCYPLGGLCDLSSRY
Adenosylmethionine-8-amino-7-oxononanoate aminotransferase, sequence (P9WQ81 whole entry): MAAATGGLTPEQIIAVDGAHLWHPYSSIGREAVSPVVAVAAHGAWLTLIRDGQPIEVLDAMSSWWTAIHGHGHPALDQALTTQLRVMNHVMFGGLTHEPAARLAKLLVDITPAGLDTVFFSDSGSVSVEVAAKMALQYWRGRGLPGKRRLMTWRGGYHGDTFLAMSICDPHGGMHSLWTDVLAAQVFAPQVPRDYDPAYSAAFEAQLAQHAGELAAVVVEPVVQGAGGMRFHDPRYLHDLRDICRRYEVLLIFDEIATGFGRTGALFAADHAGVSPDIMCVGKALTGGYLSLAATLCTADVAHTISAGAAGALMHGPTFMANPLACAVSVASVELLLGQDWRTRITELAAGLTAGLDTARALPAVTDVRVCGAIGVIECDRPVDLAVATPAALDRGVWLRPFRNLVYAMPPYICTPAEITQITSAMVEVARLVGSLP
Beta Lactamase, sequence (Q932Y6 whole entry): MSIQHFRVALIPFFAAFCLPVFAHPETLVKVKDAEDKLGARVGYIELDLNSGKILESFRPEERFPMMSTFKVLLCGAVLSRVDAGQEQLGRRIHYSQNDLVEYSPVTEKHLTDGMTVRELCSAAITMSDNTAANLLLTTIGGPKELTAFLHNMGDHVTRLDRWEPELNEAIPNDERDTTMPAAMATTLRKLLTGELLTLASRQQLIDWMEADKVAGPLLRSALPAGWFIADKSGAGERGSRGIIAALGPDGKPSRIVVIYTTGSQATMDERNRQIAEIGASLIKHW
Cytochrome P450 2C19, sequence (P33261 whole entry): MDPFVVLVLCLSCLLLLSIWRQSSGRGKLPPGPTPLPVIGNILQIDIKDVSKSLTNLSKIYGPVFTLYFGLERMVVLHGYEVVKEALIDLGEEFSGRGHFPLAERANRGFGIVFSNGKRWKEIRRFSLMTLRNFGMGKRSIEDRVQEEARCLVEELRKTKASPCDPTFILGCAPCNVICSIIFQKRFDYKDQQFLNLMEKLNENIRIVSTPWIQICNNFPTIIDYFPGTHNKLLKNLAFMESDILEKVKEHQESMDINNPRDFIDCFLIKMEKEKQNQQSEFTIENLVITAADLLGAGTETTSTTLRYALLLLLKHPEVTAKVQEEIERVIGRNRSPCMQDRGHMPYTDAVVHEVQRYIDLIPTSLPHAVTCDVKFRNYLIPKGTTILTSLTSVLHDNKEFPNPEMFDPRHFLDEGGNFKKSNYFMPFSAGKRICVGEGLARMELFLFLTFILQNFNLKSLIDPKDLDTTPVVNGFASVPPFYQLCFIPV
DNA repair and recombination protein RAD54-like, sequence (Q92698 whole entry): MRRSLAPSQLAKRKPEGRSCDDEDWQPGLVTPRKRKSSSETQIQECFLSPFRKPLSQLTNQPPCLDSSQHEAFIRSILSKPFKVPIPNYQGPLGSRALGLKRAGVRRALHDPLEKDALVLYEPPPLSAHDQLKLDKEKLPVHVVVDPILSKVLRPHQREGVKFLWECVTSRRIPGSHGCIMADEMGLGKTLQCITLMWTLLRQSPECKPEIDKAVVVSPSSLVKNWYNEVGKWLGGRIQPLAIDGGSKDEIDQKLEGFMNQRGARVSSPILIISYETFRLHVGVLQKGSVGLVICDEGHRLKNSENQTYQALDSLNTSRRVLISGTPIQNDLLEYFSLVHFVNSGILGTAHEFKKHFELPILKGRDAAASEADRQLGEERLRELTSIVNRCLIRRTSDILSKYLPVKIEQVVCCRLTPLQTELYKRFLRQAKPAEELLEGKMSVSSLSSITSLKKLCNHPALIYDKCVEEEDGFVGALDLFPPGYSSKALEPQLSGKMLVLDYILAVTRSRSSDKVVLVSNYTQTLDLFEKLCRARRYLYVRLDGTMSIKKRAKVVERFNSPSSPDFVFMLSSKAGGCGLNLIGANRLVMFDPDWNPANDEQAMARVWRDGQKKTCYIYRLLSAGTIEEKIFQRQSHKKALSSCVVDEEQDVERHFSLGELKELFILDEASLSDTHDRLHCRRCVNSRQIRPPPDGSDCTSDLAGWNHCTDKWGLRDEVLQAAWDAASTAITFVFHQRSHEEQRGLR

Q: For `CCOc1ccc(C(=O)N/N=C/c2cc([N+](=O)[O-])cs2)cc1`, which IC50 [1] is on record?
A: 14.4 µM (active)

Q: Which IC50 [2] does the source give for `CCOC(=O)[C@]12Cc3cc(C)ccc3[C@H]1N(C1CCCCC1)C(=O)c1ccccc12` here?
A: 6.17 µM (active)

Q: What about the IC50 [3] of the same compound?
A: 2.28 µM (active)

Q: And the IC50 [4]?
A: 6.98 µM (active)

Q: And the IC50 [5]?
A: 39 µM (inactive)

Q: With `Cc1ccc(C(C[N+](=O)[O-])Sc2ccc(N)cc2)cc1` (stereo not given) as the compound, how does the AC50 [6] read?
A: 4.99 µM (active)

Q: What about the IC50 [7] of the same compound?
A: 16.9 µM (active)

Q: What about the EC50 [8] of the same compound?
A: 31.3 µM (active)

Q: What about the CC50 [9] of the same compound?
A: > 40 µM (active)

Q: Which AC50 [10] does the source give for `Cc1cccc(-n2c(SCC(=O)N(C)C3CCS(=O)(=O)C3)nc3ccccc3c2=O)c1C` (stereo not given) here?
A: 3.13 µM (active)

Q: Which EC50 [11] does the source give for `COc1ccc(COc2ccsc2C(=O)Nc2ccc(Cl)c(Cl)c2)cc1` here?
A: > 89.2 µM (inactive)

Q: What does the source list for `Cc1cc(/C=C(/C#N)C(=O)Nc2ccccc2)c(C)n1-c1cccnc1`?
A: AC50 [12]: 2 µM (inconclusive); AC50 [13]: 1.78 µM (inconclusive); AC50 [10]: 0.306 µM (active)

Q: Which EC50 [11] does the source give for `COc1cccc(-c2cnc3c(NC(C)=O)cc(-c4cc(OC)c(OC)c(OC)c4)cn23)c1` here?
A: > 89.2 µM (inactive)

Q: What about the IC50 [14] of the same compound?
A: > 79 µM (inactive)

Q: For `COc1ccc(OC)c2c(C)cc(NCCN3CCOCC3)nc12`, which AC50 [15] is on record?
A: 37.6 µM (active)

Q: What does the source list for `CC1=NNC(=O)/C1=C\c1cn(-c2ccccc2)nc1-c1cccs1`?
A: IC50 [16]: > 100 µM (active); CC50 [17]: 9.79 µM (active); EC50 [18]: 4.55 µM (inconclusive); AC50 [6]: 1.87 µM (active); EC50 [19]: 1.44 µM (active); EC50 [20]: 7.38 µM (active); IC50 [3]: 1.55 µM (active); EC50 [21]: 7.11 µM (active); AC50 [22]: 3.97 µM (active); CC50 [23]: 7.31 µM (active); EC50 [24]: 13 µM (active); EC50 [25]: 5.32 µM (active); AC50 [26]: 7.34 µM (active); CC50 [27]: 9.49 µM (active); IC50 [5]: 49.8 µM (inactive); EC50 [28]: 5.14 µM (active); CC50 [29]: 10.9 µM (active); IC50 [30]: 24.8 µM (active)
